Measured values: US11752188B2, “Compositions and methods for nutritional supplements” (DailyColors Health Inc., priority 2020, dated 2023)
Where two headings read alike, the source gives them in different places. One block for each compound: values may come before it.

What was measured:
Format in all cases: biochemical
recombinant human JAK2 = recombinant human JAK2 (Homo sapiens, UniProt O60674); assay: JAK2 Kinase-Glo Plus luminescence kinase assay
recombinant human JAK1 = recombinant human JAK1 (Homo sapiens, UniProt P23458); assay: JAK1 Kinase-Glo Plus luminescence kinase assay
recombinant human JAK3 = target: T1, recombinant human JAK3 (Homo sapiens, UniProt P52333); assay: JAK3 Kinase-Glo Plus luminescence kinase assay
T1 sequence (P52333 1-1124): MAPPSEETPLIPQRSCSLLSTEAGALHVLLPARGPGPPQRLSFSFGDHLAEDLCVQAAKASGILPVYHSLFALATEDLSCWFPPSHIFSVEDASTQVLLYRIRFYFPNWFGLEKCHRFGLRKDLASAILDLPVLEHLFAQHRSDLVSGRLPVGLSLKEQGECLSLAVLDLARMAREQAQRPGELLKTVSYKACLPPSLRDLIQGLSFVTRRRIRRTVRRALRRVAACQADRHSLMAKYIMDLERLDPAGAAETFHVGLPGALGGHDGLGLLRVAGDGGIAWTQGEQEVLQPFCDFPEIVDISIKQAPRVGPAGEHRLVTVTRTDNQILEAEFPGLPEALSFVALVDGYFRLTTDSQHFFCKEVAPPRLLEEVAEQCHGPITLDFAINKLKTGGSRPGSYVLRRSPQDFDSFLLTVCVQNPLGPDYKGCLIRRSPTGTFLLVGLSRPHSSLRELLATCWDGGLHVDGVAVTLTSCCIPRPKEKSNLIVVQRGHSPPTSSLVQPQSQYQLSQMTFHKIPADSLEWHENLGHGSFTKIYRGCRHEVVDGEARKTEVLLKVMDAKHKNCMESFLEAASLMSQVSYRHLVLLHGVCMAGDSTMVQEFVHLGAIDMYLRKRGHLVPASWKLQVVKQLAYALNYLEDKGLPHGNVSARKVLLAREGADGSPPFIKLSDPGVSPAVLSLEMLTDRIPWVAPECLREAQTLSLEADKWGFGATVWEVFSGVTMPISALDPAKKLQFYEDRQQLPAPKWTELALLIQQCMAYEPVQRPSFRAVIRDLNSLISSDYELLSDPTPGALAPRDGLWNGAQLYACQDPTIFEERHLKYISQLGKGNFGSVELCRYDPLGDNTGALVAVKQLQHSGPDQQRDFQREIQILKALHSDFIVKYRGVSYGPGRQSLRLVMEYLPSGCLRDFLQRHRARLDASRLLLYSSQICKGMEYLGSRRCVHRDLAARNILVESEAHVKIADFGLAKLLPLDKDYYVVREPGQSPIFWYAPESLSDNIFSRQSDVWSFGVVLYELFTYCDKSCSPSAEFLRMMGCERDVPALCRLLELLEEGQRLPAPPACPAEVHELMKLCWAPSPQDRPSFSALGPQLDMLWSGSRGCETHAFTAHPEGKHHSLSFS

recombinant human NAMPT = target: T2, recombinant human NAMPT (Homo sapiens, UniProt P43490); assay: NAMPT in vitro enzymatic fluorescence assay
T2 construct: purchased 91004
T2 sequence (P43490 whole entry): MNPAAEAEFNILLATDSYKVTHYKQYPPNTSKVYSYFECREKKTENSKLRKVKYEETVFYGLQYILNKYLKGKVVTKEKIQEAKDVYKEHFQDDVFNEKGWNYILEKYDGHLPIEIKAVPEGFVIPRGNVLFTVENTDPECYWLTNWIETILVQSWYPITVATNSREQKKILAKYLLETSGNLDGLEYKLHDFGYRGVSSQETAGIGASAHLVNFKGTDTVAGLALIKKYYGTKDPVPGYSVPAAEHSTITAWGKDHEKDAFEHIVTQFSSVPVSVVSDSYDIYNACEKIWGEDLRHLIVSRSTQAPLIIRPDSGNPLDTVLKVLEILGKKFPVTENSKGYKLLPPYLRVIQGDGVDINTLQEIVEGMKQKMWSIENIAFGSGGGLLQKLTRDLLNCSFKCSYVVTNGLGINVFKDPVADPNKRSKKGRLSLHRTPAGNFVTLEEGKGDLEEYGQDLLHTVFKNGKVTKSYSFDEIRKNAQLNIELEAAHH
Experimental: Assay Conditions: The control compound is dissolved in DMSO. The dilution of the compounds was first performed in 100% DMSO with the highest concentration at 0.01 mM. […] For NAMPT, the compounds (see 2.2) were preincubated with NAMPT enzyme (see 2.3.1) in for 30 minutes. […] The final concentration of DMSO in all reactions was 1%. Fluorescence intensity was measured at an excitation of 340 nm and an emission of 460 nm using a Tecan Infinite M1000 microplate reader.
Data Analysis: NAMPT activity assays were performed in duplicates at each concentration. […] In the absence of the compound, the fluorescent intensity (Ft) in each data set was defined as 100% activity. In the absence of NAMPT, the fluorescent intensity (Fb) in each data set was defined as 0% activity. The percent activity in the presence of each compound was calculated according to the following equation: % activity=(F−Fb)/(Ft−Fb), where F=the fluorescent intensity in the presence of the compound. The values of percentage activity were plotted on a bar graph.

recombinant human JAK1, sequence (P23458 whole entry): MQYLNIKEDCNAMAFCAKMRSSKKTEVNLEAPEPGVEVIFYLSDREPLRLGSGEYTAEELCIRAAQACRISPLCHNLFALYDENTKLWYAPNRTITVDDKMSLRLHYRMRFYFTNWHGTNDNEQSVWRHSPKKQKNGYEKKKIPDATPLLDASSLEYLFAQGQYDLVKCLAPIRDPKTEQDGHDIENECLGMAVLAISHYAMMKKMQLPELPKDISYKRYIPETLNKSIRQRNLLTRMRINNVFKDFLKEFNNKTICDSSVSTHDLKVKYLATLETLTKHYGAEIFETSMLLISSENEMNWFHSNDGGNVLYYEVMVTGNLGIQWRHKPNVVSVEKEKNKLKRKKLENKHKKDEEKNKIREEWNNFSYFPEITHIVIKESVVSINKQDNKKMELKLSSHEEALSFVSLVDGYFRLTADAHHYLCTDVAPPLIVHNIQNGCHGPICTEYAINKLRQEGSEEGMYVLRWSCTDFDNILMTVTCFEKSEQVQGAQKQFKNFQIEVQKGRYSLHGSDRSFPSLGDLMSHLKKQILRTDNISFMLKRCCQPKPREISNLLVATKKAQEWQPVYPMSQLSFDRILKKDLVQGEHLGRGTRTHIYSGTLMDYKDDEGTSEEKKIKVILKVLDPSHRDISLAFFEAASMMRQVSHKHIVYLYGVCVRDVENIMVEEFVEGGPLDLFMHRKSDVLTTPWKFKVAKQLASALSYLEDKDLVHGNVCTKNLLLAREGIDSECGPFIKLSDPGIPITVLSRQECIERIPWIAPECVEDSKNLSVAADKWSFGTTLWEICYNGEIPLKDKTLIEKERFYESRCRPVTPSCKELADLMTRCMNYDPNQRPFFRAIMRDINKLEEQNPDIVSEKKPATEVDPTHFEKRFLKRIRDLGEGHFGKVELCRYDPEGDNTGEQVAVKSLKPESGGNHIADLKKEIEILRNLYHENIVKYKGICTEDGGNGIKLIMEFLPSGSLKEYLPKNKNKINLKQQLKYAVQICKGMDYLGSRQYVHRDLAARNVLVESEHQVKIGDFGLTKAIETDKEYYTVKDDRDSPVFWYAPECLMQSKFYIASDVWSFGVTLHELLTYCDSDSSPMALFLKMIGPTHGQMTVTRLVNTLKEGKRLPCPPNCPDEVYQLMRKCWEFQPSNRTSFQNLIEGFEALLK
recombinant human JAK2, sequence (O60674 whole entry): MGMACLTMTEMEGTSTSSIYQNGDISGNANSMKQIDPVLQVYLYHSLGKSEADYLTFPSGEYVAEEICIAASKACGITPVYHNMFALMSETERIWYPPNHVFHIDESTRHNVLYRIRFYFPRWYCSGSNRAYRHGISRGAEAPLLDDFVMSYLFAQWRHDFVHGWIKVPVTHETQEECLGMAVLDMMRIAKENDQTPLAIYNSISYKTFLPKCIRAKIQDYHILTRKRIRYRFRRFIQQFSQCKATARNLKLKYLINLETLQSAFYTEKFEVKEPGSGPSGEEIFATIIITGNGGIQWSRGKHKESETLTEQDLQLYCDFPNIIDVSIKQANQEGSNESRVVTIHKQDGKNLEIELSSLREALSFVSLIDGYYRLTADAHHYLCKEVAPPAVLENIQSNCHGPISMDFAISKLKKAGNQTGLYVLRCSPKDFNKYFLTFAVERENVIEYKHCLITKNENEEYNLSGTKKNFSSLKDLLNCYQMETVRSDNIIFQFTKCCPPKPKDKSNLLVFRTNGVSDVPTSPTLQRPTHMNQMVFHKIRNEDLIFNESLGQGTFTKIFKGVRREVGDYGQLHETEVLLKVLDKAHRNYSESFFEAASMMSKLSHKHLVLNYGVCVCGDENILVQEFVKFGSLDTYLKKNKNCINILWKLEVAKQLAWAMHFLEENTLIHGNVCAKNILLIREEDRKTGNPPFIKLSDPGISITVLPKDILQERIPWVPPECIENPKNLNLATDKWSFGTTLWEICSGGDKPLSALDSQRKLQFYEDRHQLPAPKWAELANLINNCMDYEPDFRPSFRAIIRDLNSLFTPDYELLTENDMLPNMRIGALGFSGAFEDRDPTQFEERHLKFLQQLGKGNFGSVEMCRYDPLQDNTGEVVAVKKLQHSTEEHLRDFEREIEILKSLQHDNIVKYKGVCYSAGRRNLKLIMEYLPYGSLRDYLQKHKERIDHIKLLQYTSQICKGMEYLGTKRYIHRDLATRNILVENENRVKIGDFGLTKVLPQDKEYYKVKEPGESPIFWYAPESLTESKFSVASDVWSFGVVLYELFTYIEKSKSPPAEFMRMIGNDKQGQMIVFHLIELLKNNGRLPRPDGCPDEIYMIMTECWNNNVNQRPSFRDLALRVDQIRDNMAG

Compound: CN[C@@H]1C[C@H]2O[C@@](C)([C@@H]1OC)n1c3ccccc3c3c4c(c5c6ccccc6n2c5c31)C(=O)NC4 [Staurosporine]
Kinase Activity Luminescence Repeat1 (recombinant human JAK2; 0.001 μM, TABLE 69): 19100
Kinase Activity Luminescence Repeat2 (recombinant human JAK2; 0.001 μM, TABLE 69): 20922
inhibition at 0.001 µM (recombinant human JAK2; 0.001 μM, TABLE 69): 0%
activity at 0.001 µM (recombinant human JAK2; 0.001 μM, TABLE 69, read-out: % Activity Repeat1): 105%
activity at 0.001 µM (recombinant human JAK2; 0.001 μM, TABLE 69, read-out: % Activity Repeat2): 96%
Kinase Activity Luminescence Repeat1 (recombinant human JAK2; 1 nM, TABLE 72): 9482
Kinase Activity Luminescence Repeat2 (recombinant human JAK2; 1 nM, TABLE 72): 10430
activity at 0.001 µM (recombinant human JAK2; 1 nM, TABLE 72, read-out: % Activity Repeat1): 89%
activity at 0.001 µM (recombinant human JAK2; 1 nM, TABLE 72, read-out: % Activity Repeat2): 86%
Kinase Activity Luminescence Repeat1 (recombinant human JAK2; 0.01 μM, TABLE 69): 36988
Kinase Activity Luminescence Repeat2 (recombinant human JAK2; 0.01 μM, TABLE 69): 36554
activity at 0.01 µM (recombinant human JAK2; 0.01 μM, TABLE 69, read-out: % Activity Repeat1): 16%
activity at 0.01 µM (recombinant human JAK2; 0.01 μM, TABLE 69, read-out: % Activity Repeat2): 18%
inhibition at 0.01 µM (recombinant human JAK2; 0.01 μM, TABLE 69, read-out: % Inhibition): 83%
Kinase Activity Luminescence Repeat1 (recombinant human JAK2; 10 nM, TABLE 72): 17529
Kinase Activity Luminescence Repeat2 (recombinant human JAK2; 10 nM, TABLE 72): 16180
activity at 0.01 µM (recombinant human JAK2; 10 nM, TABLE 72, read-out: % Activity Repeat1): 65%
activity at 0.01 µM (recombinant human JAK2; 10 nM, TABLE 72, read-out: % Activity Repeat2): 69%
inhibition at 0.01 µM (recombinant human JAK2; 10 nM, TABLE 74 summary, read-out: % Inhibition JAK2): 33%
Kinase Activity Luminescence Repeat1 (recombinant human JAK2; 0.1 μM, TABLE 69): 42700
Kinase Activity Luminescence Repeat2 (recombinant human JAK2; 0.1 μM, TABLE 69): 40639
inhibition at 0.1 µM (recombinant human JAK2; 0.1 μM, TABLE 69): 100%
activity at 0.1 µM (recombinant human JAK2; 0.1 μM, TABLE 69, read-out: % Activity Repeat1): 0%
activity at 0.1 µM (recombinant human JAK2; 0.1 μM, TABLE 69, read-out: % Activity Repeat2): 0%
Kinase Activity Luminescence Repeat1 (recombinant human JAK2; 100 nM, TABLE 72): 34660
Kinase Activity Luminescence Repeat2 (recombinant human JAK2; 100 nM, TABLE 72): 34762
inhibition at 0.001 µM (recombinant human JAK1): 7%
inhibition at 0.01 µM (recombinant human JAK1): 72%
Kinase Activity Luminescence Repeat1 (recombinant human JAK1; 0.001 μM, TABLE 68): 25176
Kinase Activity Luminescence Repeat2 (recombinant human JAK1; 0.001 μM, TABLE 68): 27054
Kinase Activity Luminescence Repeat1 (recombinant human JAK1; 1 nM, TABLE 71): 21164
Kinase Activity Luminescence Repeat2 (recombinant human JAK1; 1 nM, TABLE 71): 24810
Kinase Activity Luminescence Repeat1 (recombinant human JAK1; 0.01 μM, TABLE 68): 37642
Kinase Activity Luminescence Repeat2 (recombinant human JAK1; 0.01 μM, TABLE 68): 35358
Kinase Activity Luminescence Repeat1 (recombinant human JAK1; 10 nM, TABLE 71): 28640
Kinase Activity Luminescence Repeat2 (recombinant human JAK1; 10 nM, TABLE 71): 32000
Kinase Activity Luminescence Repeat1 (recombinant human JAK1; 0.1 μM, TABLE 68): 40161
Kinase Activity Luminescence Repeat2 (recombinant human JAK1; 0.1 μM, TABLE 68): 40781
Kinase Activity Luminescence Repeat1 (recombinant human JAK1; 100 nM, TABLE 71): 36908
Kinase Activity Luminescence Repeat2 (recombinant human JAK1; 100 nM, TABLE 71): 39509
activity at 0.001 µM (recombinant human JAK1; read-out: % Activity Repeat1, 0.001 μM, TABLE 68): 99%
activity at 0.001 µM (recombinant human JAK1; read-out: % Activity Repeat1, 1 nM, TABLE 71): 88%
activity at 0.01 µM (recombinant human JAK1; read-out: % Activity Repeat1, 10 nM, TABLE 71): 52%
activity at 0.1 µM (recombinant human JAK1; read-out: % Activity Repeat1, 0.1 μM, TABLE 68): 5%
activity at 0.1 µM (recombinant human JAK1; read-out: % Activity Repeat1, 100 nM, TABLE 71): 11%
activity at 0.001 µM (recombinant human JAK1; read-out: % Activity Repeat2, 0.001 μM, TABLE 68): 87%
activity at 0.001 µM (recombinant human JAK1; read-out: % Activity Repeat2, 1 nM, TABLE 71): 70%
activity at 0.1 µM (recombinant human JAK1; read-out: % Activity Repeat2, 0.1 μM, TABLE 68): 1%
activity at 0.1 µM (recombinant human JAK1; read-out: % Activity Repeat2, 100 nM, TABLE 71): 0%
inhibition at 0.01 µM (recombinant human JAK1; read-out: % Inhibition JAK1): 56%
inhibition at 0.1 µM (recombinant human JAK1; read-out: % Inhibition JAK1): 94%
inhibition at 0.001 µM (recombinant human JAK3): 19%
inhibition at 0.01 µM (recombinant human JAK3): 65%
inhibition at 0.1 µM (recombinant human JAK3): 100%
Kinase Activity Luminescence Repeat1 (recombinant human JAK3; 0.001 μM, TABLE 70): 23814
Kinase Activity Luminescence Repeat2 (recombinant human JAK3; 0.001 μM, TABLE 70): 23348
Kinase Activity Luminescence Repeat1 (recombinant human JAK3; 1 nM, TABLE 73): 21050
Kinase Activity Luminescence Repeat2 (recombinant human JAK3; 1 nM, TABLE 73): 24827
Kinase Activity Luminescence Repeat1 (recombinant human JAK3; 0.01 μM, TABLE 70): 32137
Kinase Activity Luminescence Repeat2 (recombinant human JAK3; 0.01 μM, TABLE 70): 32417
Kinase Activity Luminescence Repeat1 (recombinant human JAK3; 10 nM, TABLE 73): 32876
Kinase Activity Luminescence Repeat2 (recombinant human JAK3; 10 nM, TABLE 73): 34538
Kinase Activity Luminescence Repeat1 (recombinant human JAK3; 0.1 μM, TABLE 70): 39970
Kinase Activity Luminescence Repeat2 (recombinant human JAK3; 0.1 μM, TABLE 70): 40121
Kinase Activity Luminescence Repeat1 (recombinant human JAK3; 100 nM, TABLE 73): 37496
Kinase Activity Luminescence Repeat2 (recombinant human JAK3; 100 nM, TABLE 73): 39233
activity at 0.001 µM (recombinant human JAK3; read-out: % Activity Repeat1, 0.001 μM, TABLE 70): 80%
activity at 0.001 µM (recombinant human JAK3; read-out: % Activity Repeat1, 1 nM, TABLE 73): 84%
activity at 0.01 µM (recombinant human JAK3; read-out: % Activity Repeat1, 10 nM, TABLE 73): 27%
activity at 0.1 µM (recombinant human JAK3; read-out: % Activity Repeat1, 0.1 μM, TABLE 70): 0%
activity at 0.1 µM (recombinant human JAK3; read-out: % Activity Repeat1, 100 nM, TABLE 73): 5%
activity at 0.001 µM (recombinant human JAK3; read-out: % Activity Repeat2, 0.001 μM, TABLE 70): 82%
activity at 0.001 µM (recombinant human JAK3; read-out: % Activity Repeat2, 1 nM, TABLE 73): 66%
activity at 0.01 µM (recombinant human JAK3; read-out: % Activity Repeat2, 0.01 μM, TABLE 70): 35%
activity at 0.01 µM (recombinant human JAK3; read-out: % Activity Repeat2, 10 nM, TABLE 73): 20%
activity at 0.1 µM (recombinant human JAK3; read-out: % Activity Repeat2, 0.1 μM, TABLE 70): 0%
activity at 0.1 µM (recombinant human JAK3; read-out: % Activity Repeat2, 100 nM, TABLE 73): 0%
inhibition at 0.001 µM (recombinant human JAK3; read-out: % Inhibition JAK3): 25%
inhibition at 0.01 µM (recombinant human JAK3; read-out: % Inhibition JAK3): 77%
inhibition at 0.1 µM (recombinant human JAK3; read-out: % Inhibition JAK3): 97%

inhibition at 0.001 µM (recombinant human NAMPT): 4%
inhibition at 0.01 µM (recombinant human NAMPT): 57%
inhibition at 0.1 µM (recombinant human NAMPT): 100%
Background (Fluorescence count) Repeat 1 (recombinant human NAMPT; 0.001 μM): 450
Background (Fluorescence count) Repeat 2 (recombinant human NAMPT; 0.001 μM): 442
NAMPT Activity (Fluorescence Intensity) Repeat 1 (recombinant human NAMPT; 0.001 μM): 3328
NAMPT Activity (Fluorescence Intensity) Repeat 2 (recombinant human NAMPT; 0.001 μM): 3345
Background (Fluorescence count) Repeat 1 (recombinant human NAMPT; 0.01 μM): 454
Background (Fluorescence count) Repeat 2 (recombinant human NAMPT; 0.01 μM): 461
NAMPT Activity (Fluorescence Intensity) Repeat 1 (recombinant human NAMPT; 0.01 μM): 1750
NAMPT Activity (Fluorescence Intensity) Repeat 2 (recombinant human NAMPT; 0.01 μM): 1766
Background (Fluorescence count) Repeat 1 (recombinant human NAMPT; 0.1 μM): 440
Background (Fluorescence count) Repeat 2 (recombinant human NAMPT; 0.1 μM): 442
NAMPT Activity (Fluorescence Intensity) Repeat 1 (recombinant human NAMPT; 0.1 μM): 463
NAMPT Activity (Fluorescence Intensity) Repeat 2 (recombinant human NAMPT; 0.1 μM): 468
activity at 0.001 µM (recombinant human NAMPT; read-out: % Activity Repeat 1): 95%
activity at 0.01 µM (recombinant human NAMPT; read-out: % Activity Repeat 1): 42%
activity at 0.1 µM (recombinant human NAMPT; read-out: % Activity Repeat 1): 0%
activity at 0.001 µM (recombinant human NAMPT; read-out: % Activity Repeat 2): 96%
activity at 0.01 µM (recombinant human NAMPT; read-out: % Activity Repeat 2): 43%
activity at 0.1 µM (recombinant human NAMPT; read-out: % Activity Repeat 2): 0%
Compound: O=C(/C=C/c1cccnc1)NCCCCC1CCN(C(=O)c2ccccc2)CC1 [FK-866]
